Reference: PMC9403976, “Elucidating the path to Plasmodium prolyl-tRNA synthetase inhibitors that overcome halofuginone resistance” (Nature Communications, 2022)
Several values for one entry are separate records, joined by “and”; a condition that tells them apart may be missing. Equal values may be shown once. Read-outs that look alike come from different tables or passages of the source.

Assays:
PfcProRS = target: T1, PfcProRS (Plasmodium falciparum, UniProt Q8I5R7); format: binding; conditions: for dose-response signal (normalized), SI Fig 8: single replicates
T1 construct: made in house; host or cells: E. coli SoluBL-21
T1 sequence (Q8I5R7 249-746): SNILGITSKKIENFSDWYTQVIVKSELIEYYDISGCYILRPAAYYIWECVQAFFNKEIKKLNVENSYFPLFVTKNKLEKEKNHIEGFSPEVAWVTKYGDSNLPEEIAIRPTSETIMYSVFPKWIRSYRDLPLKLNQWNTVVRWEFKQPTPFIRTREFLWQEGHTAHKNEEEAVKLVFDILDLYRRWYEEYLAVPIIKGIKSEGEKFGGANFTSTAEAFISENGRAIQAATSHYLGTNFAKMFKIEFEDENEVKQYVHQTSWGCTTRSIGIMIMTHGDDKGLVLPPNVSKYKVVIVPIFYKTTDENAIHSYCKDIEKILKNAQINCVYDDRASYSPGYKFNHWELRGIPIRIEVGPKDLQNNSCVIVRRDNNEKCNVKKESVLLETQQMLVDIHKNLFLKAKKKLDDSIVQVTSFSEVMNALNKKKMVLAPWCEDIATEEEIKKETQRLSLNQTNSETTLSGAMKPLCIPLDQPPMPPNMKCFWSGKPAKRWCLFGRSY

HsProRS = HsProRS (Homo sapiens, UniProt P07814); test: TR-FRET ligand displacement assay with tracer MAT379 (CoraFluor-1-Halo and anti-His6 antibody formats); format: binding; parameters: made in house; host or cells: E. coli SoluBL-21; conditions: for TR-FRET dose-response, normalized signal (SI Fig 11): individual replicates
Chain of HsProRS (P07814 996-1512): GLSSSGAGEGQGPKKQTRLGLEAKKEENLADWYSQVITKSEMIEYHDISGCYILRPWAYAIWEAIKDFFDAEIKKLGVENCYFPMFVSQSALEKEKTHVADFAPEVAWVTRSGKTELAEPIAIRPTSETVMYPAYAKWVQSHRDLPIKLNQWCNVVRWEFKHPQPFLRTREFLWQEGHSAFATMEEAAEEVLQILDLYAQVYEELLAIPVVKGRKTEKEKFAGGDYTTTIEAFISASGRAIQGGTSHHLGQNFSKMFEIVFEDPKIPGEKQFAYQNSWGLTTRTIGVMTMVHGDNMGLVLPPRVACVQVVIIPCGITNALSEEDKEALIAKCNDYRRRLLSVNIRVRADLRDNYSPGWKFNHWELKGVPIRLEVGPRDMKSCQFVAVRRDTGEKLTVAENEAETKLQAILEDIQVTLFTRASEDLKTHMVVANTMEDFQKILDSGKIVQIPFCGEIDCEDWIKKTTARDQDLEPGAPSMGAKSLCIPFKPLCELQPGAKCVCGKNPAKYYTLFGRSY

P. falciparum Dd2-2D4 = test: P. falciparum asexual blood stage (ABS) growth assay, SYBR Green, 72 h, wild-type parasites; format: cell-based, Plasmodium falciparum; conditions: wildtype (Dd2-2D4); 20 μM

For `O=C(NC1Cc2ccccc2C1)c1nccnc1NC(=O)C1CCOCC1` [compound 18], the “dose-response signal (normalized), SI Fig 8” value (PfcProRS; Log[inhibitor] (M) -5.000) was 3.01E-01 and 4.11E-01 and 4.27E-01, the “dose-response signal (normalized), SI Fig 8” value (PfcProRS; Log[inhibitor] (M) -5.301) was 6.53E-01 and 6.16E-01 and 6.73E-01 and the “dose-response signal (normalized), SI Fig 8” value (PfcProRS; Log[inhibitor] (M) -5.601) was 8.02E-01 and 8.42E-01 and 8.63E-01. For the same molecule, the “dose-response signal (normalized), SI Fig 8” value (PfcProRS; Log[inhibitor] (M) -5.904) was 1.01E+00 and 1.00E+00 and 9.12E-01, the “dose-response signal (normalized), SI Fig 8” value (PfcProRS; Log[inhibitor] (M) -6.208) was 1.03E+00 and 1.00E+00 and 9.60E-01 and the “dose-response signal (normalized), SI Fig 8” value (PfcProRS; Log[inhibitor] (M) -6.509) was 1.16E+00 and 9.38E-01 and 1.04E+00. For the same molecule, the “dose-response signal (normalized), SI Fig 8” value (PfcProRS; Log[inhibitor] (M) -6.796) was 9.96E-01 and 9.92E-01 and 1.04E+00, the “dose-response signal (normalized), SI Fig 8” value (PfcProRS; Log[inhibitor] (M) -7.108) was 1.02E+00 and 9.74E-01 and 9.75E-01 and the “dose-response signal (normalized), SI Fig 8” value (PfcProRS; Log[inhibitor] (M) -7.409) was 1.01E+00 (2×) and 1.08E+00. The “dose-response signal (normalized), SI Fig 8” value (PfcProRS; Log[inhibitor] (M) -7.710) was 9.82E-01 and 1.05E+00 and 9.42E-01, the “dose-response signal (normalized), SI Fig 8” value (PfcProRS; Log[inhibitor] (M) -8.000) was 1.03E+00 and 1.10E+00 and 9.98E-01 and the “dose-response signal (normalized), SI Fig 8” value (PfcProRS; Log[inhibitor] (M) -8.301) was 9.51E-01 and 1.13E+00 and 9.71E-01. The “dose-response signal (normalized), SI Fig 8” value (PfcProRS; Log[inhibitor] (M) -8.602) was 1.03E+00 and 9.75E-01 and 1.04E+00, the “dose-response signal (normalized), SI Fig 8” value (PfcProRS; Log[inhibitor] (M) -9.000) was 9.05E-01 and 1.01E+00 and 9.83E-01 and the “dose-response signal (normalized), SI Fig 8” value (PfcProRS; Log[inhibitor] (M) -9.301) was 9.17E-01 and 9.20E-01 and 9.09E-01. For the same molecule, the “PfcProRS -- best Kd” value (PfcProRS; SI Fig 16a, values on -log scale) was 5.799, the Kd (HsProRS; HsProRS (KD [nM]) mean, no added proline/ATP (-)) was 7400 nM and the Kd (HsProRS; HsProRS - best Kd, SI Fig 16a, values on -log scale) was 225 nM. The “normalized TR-FRET ligand displacement signal, dose-response replicates (SI Fig 6)” value (HsProRS; Log[inhibitor] (M) -5.000) was 6.96E-01 and 5.92E-01 and 5.43E-01, the “TR-FRET dose-response, normalized signal (SI Fig 11)” value (HsProRS; Log[inhibitor] (M) -5.000) was 4.20E-01 and 4.17E-01 and 4.61E-01 and the “normalized TR-FRET ligand displacement signal, dose-response replicates (SI Fig 6)” value (HsProRS; Log[inhibitor] (M) -5.301) was 8.37E-01 and 8.70E-01 and 8.44E-01. For the same molecule, the “TR-FRET dose-response, normalized signal (SI Fig 11)” value (HsProRS; Log[inhibitor] (M) -5.301) was 6.08E-01 and 6.33E-01 and 6.32E-01, the “normalized TR-FRET ligand displacement signal, dose-response replicates (SI Fig 6)” value (HsProRS; Log[inhibitor] (M) -5.601) was 9.23E-01 and 9.21E-01 and 9.37E-01 and the “TR-FRET dose-response, normalized signal (SI Fig 11)” value (HsProRS; Log[inhibitor] (M) -5.601) was 7.60E-01 and 7.57E-01 and 7.53E-01. The “normalized TR-FRET ligand displacement signal, dose-response replicates (SI Fig 6)” value (HsProRS; Log[inhibitor] (M) -5.904) was 9.48E-01 and 1.01E+00 and 1.07E+00, the “TR-FRET dose-response, normalized signal (SI Fig 11)” value (HsProRS; Log[inhibitor] (M) -5.904) was 8.33E-01 and 8.64E-01 and 8.38E-01 and the “normalized TR-FRET ligand displacement signal, dose-response replicates (SI Fig 6)” value (HsProRS; Log[inhibitor] (M) -6.208) was 1.06E+00 (2×) and 1.00E+00. For the same molecule, the “TR-FRET dose-response, normalized signal (SI Fig 11)” value (HsProRS; Log[inhibitor] (M) -6.208) was 8.52E-01 and 9.04E-01 and 9.21E-01, the “normalized TR-FRET ligand displacement signal, dose-response replicates (SI Fig 6)” value (HsProRS; Log[inhibitor] (M) -6.509) was 1.01E+00 and 1.02E+00 and 9.62E-01 and the “TR-FRET dose-response, normalized signal (SI Fig 11)” value (HsProRS; Log[inhibitor] (M) -6.509) was 9.56E-01 and 9.24E-01 and 9.57E-01. The “normalized TR-FRET ligand displacement signal, dose-response replicates (SI Fig 6)” value (HsProRS; Log[inhibitor] (M) -6.796) was 9.72E-01 and 9.92E-01 and 1.02E+00, the “TR-FRET dose-response, normalized signal (SI Fig 11)” value (HsProRS; Log[inhibitor] (M) -6.796) was 9.31E-01 (2×) and 9.72E-01 and the “normalized TR-FRET ligand displacement signal, dose-response replicates (SI Fig 6)” value (HsProRS; Log[inhibitor] (M) -7.108) was 9.59E-01 and 8.74E-01 and 9.90E-01. For the same molecule, the “TR-FRET dose-response, normalized signal (SI Fig 11)” value (HsProRS; Log[inhibitor] (M) -7.108) was 9.27E-01 and 9.12E-01 and 9.11E-01, the “normalized TR-FRET ligand displacement signal, dose-response replicates (SI Fig 6)” value (HsProRS; Log[inhibitor] (M) -7.409) was 9.78E-01 and 1.02E+00 and 1.05E+00 and the “TR-FRET dose-response, normalized signal (SI Fig 11)” value (HsProRS; Log[inhibitor] (M) -7.409) was 9.66E-01 (2×) and 9.82E-01. The “normalized TR-FRET ligand displacement signal, dose-response replicates (SI Fig 6)” value (HsProRS; Log[inhibitor] (M) -7.710) was 9.30E-01 and 1.05E+00 and 1.11E+00, the “TR-FRET dose-response, normalized signal (SI Fig 11)” value (HsProRS; Log[inhibitor] (M) -7.710) was 9.81E-01 and 9.38E-01 and 9.42E-01 and the “normalized TR-FRET ligand displacement signal, dose-response replicates (SI Fig 6)” value (HsProRS; Log[inhibitor] (M) -8.000) was 9.51E-01 and 9.79E-01 and 1.05E+00. For the same molecule, the “TR-FRET dose-response, normalized signal (SI Fig 11)” value (HsProRS; Log[inhibitor] (M) -8.000) was 9.53E-01 and 9.52E-01 and 9.49E-01, the “normalized TR-FRET ligand displacement signal, dose-response replicates (SI Fig 6)” value (HsProRS; Log[inhibitor] (M) -8.301) was 9.09E-01 and 9.22E-01 and 9.59E-01 and the “TR-FRET dose-response, normalized signal (SI Fig 11)” value (HsProRS; Log[inhibitor] (M) -8.301) was 9.20E-01 and 1.00E+00 and 8.97E-01. The “normalized TR-FRET ligand displacement signal, dose-response replicates (SI Fig 6)” value (HsProRS; Log[inhibitor] (M) -8.602) was 9.55E-01 and 9.72E-01 and 1.02E+00, the “TR-FRET dose-response, normalized signal (SI Fig 11)” value (HsProRS; Log[inhibitor] (M) -8.602) was 9.41E-01 and 9.60E-01 and 9.87E-01 and the “normalized TR-FRET ligand displacement signal, dose-response replicates (SI Fig 6)” value (HsProRS; Log[inhibitor] (M) -9.000) was 9.17E-01 and 1.01E+00 and 9.46E-01. The “TR-FRET dose-response, normalized signal (SI Fig 11)” value (HsProRS; Log[inhibitor] (M) -9.000) was 9.26E-01 and 9.53E-01 and 9.30E-01, the “normalized TR-FRET ligand displacement signal, dose-response replicates (SI Fig 6)” value (HsProRS; Log[inhibitor] (M) -9.301) was 9.60E-01 and 1.07E+00 and 9.73E-01 and the “TR-FRET dose-response, normalized signal (SI Fig 11)” value (HsProRS; Log[inhibitor] (M) -9.301) was 9.44E-01 and 9.56E-01 and 9.33E-01. For the same molecule, the “% signal at 20 μM, wildtype (Dd2-2D4)” value (P. falciparum Dd2-2D4) was 108%.
